Assay results from patent US10584159B2, “Renilla based biosensors for monitoring biomolecule localization and trafficking in cells” (The Royal Institution for the Advancement of …, priority 2014, dated 2020).
Starred links: 1 amine or outer side, 2 acyl side, 3 side chain; linkers in the order of their positions; H or OH if unused. Positions of bridges follow the written chain, without caps; N, C: chain ends. Non-standard residues stand in square brackets, D forms with d. Residues, ends and D or L forms follow the SMILES beside them. No end group written: not given here. *: point of attachment. Leu(3R-OH,Nα-propionyl) = CCC(=O)N[C@H](C(=O)*)[C@H](O)C(C)C; X1 = CC(C)[C@@H](O[*:3])[C@H](N[*:1])C(=O)[*:2]; NMeT = CN[C@H](C(=O)O)[C@@H](C)O; dPhLac = O=C(O)[C@H](O)Cc1ccccc1; NMeA = CN[C@@H](C)C(=O)O; NMeDha = C=C(NC)C(=O)O

Assays:
AT1R = molecular target: T1, AT1R (Homo sapiens, UniProt P30556); experiment: β-arrestin2 targeting to endosomes BRET (AT1R/βarr2-RlucII/rGFP-endofinFYVE); type: cell-based; conditions: 40 min
T1 construct: expressed in transfected cells; host or cells: HEK293SL
T1 sequence (P30556 1-359): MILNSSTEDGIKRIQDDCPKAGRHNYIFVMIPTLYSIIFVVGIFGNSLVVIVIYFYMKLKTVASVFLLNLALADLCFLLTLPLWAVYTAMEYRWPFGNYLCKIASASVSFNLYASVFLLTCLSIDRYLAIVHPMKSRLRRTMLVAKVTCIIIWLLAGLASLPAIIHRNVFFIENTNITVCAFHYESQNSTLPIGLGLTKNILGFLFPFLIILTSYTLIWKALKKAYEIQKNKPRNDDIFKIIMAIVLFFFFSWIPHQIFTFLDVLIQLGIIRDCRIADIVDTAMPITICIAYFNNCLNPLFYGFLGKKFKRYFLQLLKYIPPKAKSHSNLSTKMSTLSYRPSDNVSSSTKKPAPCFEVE
Protocol: BRET measurements for FIGS. 1B to 9D, 25D to 25F. The following day of transfection, cells were detached and replated onto poly-ornithine coated white 96-well plate at a density of 25,000 cells per well. The next day, cells were washed once with pre-warmed Tyrode's buffer (140 mM NaCl, 2.7 mM KCl, 1 mM CaCl2, 12 mM NaHCO3, 5.6 mM D-glucose, 0.5 mM MgCl2, 0.37 mM NaH2PO4, 25 mM HEPES, pH 7.4), and then stimulated with either various concentrations of ligands in Tyrode's buffer for the indicated time, or single concentration of ligands for various times at 37° C. For recycling experiment, after stimulating the cells with the ligands for 30 min at 37° C., they were washed either three times with ice-cold Tyrode's buffer or once with Tyrode's buffer/three times with acid (50 mM sodium citrate, pH 4.0)/two times with Tyrode's buffer. All the washing steps were performed on ice. Cells were then further incubated with Tyrode's buffer at 37° C. in a water bath for 45 min. The cell-permeable substrate, coelenterazine 400a was added at a final concentration of 5 μM in Tyrode's buffer 3-4 min before BRET measurements. Measurements were performed by using Synergy2 (BioTek®) microplate reader with a filter set of 410±80 nm and 515±30 nm for detecting the RlucII Renilla luciferase (donor) and GFP10 or rGFP (acceptor) light emissions, respectively. The BRET signal was determined by calculating the ratio of the light intensity emitted by the GFP10 or rGFP over the light intensity emitted by the RlucII. All the BRET measurements were performed in triplicate at 37° C.

Acetylcholine receptors = experiment: PKN-based RhoA activation BRET assay, carbachol stimulation; type: cell-based; conditions: 100 nM Ubo, 100 μM carbachol 70 s
Protocol: PKN-based RhoA activation assay. For FIGS. 25B-D, HEK293SL cells were grown in DMEM supplemented with 6% fetal bovine serum (FBS) and 20 μg/ml gentamycin, at 37° C. Cells were seeded at a density of 7.5×10^5 cells per 100 mm dishes and were transiently transfected the next day with constructs encoding AT1R (3 μg) along with PKN-crib-RlucII (90 ng) and rGFP-CAAX (480 ng) using calcium phosphate method as described previously. After 24 h, cells were detached and seeded onto poly-ornithine-coated 96-well white plates at a density of 25 000 cells per well in media. The next day, cells were washed once with Tyrode's buffer and left in 80 μl of Tyrode's buffer at 37° C. When indicated, cells were treated with Ubo-Qic 100 nM for 30 min or C3 toxin for 3 μg/ml (in FIG. 25I), 4 hours at 37° C. Cell stimulation and BRET measurements were done at RT. BRET signals were monitored by addition of Coel-400a to a final concentration of 5 μM using a Synergy2 (BioTek®) microplate reader. Filter set was 410±80 nm and 515±30 nm for detecting the RlucII Renilla luciferase (donor) and rGFP (acceptor) light emission. […] BRET was measured at 37° C., using a Tristar Microplate Reader (Berthold Technologies) equipped with BRET400-GFP2/10 filter set (acceptor, 515±20 nm; and donor, 400±70 nm filters). […] BRET was measured at 37° C., using a Tristar Microplate Reader (Berthold Technologies).

Gq = experiment: RlucII-tagged Gq translocation to rGFP markers (BRET) with TPαR; type: cell-based, human; conditions: 100 nM Ubo-Qic 20 min

Row | Compound | β-arrestin2 trafficking to endosomes with receptors, compared to AngII (AT1R) | effect on CCh-mediated response (Rho sensor) (Acetylcholine receptors) | U46619 response of Gq translocation to rGFP-CAAX Hras, rGFP-CAAX CCIL and Golgi markers after Gq inhibitor (Gq)
1 | DRVYVHPG [DVG, [Asp^1,Val^5, Gly^8]-AngII] | weakly promoted | – | –
2 | C=C1C(=O)N[C@@H](C)C(=O)N(C)[C@@H](C)C(=O)N[C@@H]([C@H](OC(=O)[C@@H](NC(=O)CC)[C@H](O)C(C)C)C(C)C)C(=O)N(C)[C@@H]([C@@H](C)OC)C(=O)O[C@H](C(C)C)[C@H](NC(C)=O)C(=O)O[C@H](Cc2ccccc2)C(=O)N1C [Ubo-QIC] (Ac-[X1][dPhLac][NMeDha]A[NMeA][X1](Leu(3R-OH,Nα-propionyl))[NMeT](Me); ester 1-C) | – | completely blocked | No response is observed
